# Reference: US20030040490A1, “Drugs containing combined active ingredients” (priority 2000, published 2003)
# Legend:
# [1] = tested on: Sprague-Dawley rats (SD rats); experiment: oral sucrose loading test, voglibose and nateglinide (Example 2); assay type: in vivo, rat; settings: 2.5 g/kg sucrose load, 0-120 min, average ± standard deviation
# Protocol: An effect of the combined use of the α-glucosidase inhibitor (voglibose) and non-sulfonylurea insulin secretagogue (nateglinide) was examined in an oral sucrose loading test using Sprague-Dawley rats (SD rats). SD rats (7-week-old, male) were divided into 6 groups (6 rats per group) to give 1) a control group (distilled water administration), 2) a voglibose 0.1 mg/kg administration group, 3) a nateglinide 10 or 30 mg/kg administration group, and 4) a voglibose 0.1 mg/kg and nateglinide 10 or 30 mg/kg combined administration group. After fasting overnight, every rat was given the above-mentioned drugs by single or combined oral administration, and successively given 2.5 g/kg sucrose solution by oral administration. […] The plasma glucose level was measured by an enzymatic method using an L type Wako Glu2 (Wako Pure Chemical Industries, Ltd.). Increase in the plasma glucose area was calculated by a trapezoid method (Odaka et al., J. Nutr. Sci. Vitaminol., vol. 38, p. 37 (1992) using the plasma glucose level at each time point. The results are shown in Table 1.
# [2] = tested on: Sprague-Dawley rats (SD rats); experiment: oral sucrose loading test, voglibose and repaglinide (Example 3); assay type: in vivo, rat; settings: repaglinide 0.05 mg/kg oral, 2.5 g/kg sucrose load, 0-60 min, average ± standard deviation
# Protocol: An effect of the combined use of the α-glucosidase inhibitor (voglibose) and the non-sulfonylurea insulin secretagogue (repaglinide) was examined in an oral sucrose loading test using Sprague-Dawley rats (SD rats).
# SD rats (10-week-old, male) were divided into 4 groups (6 rats per group) to give 1) a control group (distilled water administration), 2) a repaglinide 0.05 mg/kg administration group, and 3) a voglibose 0.1 mg/kg and repaglinide 0.05 mg/kg combined administration group. After fasting overnight, every rat was given the above-mentioned drugs by single or combined oral administration, and successively given 2.5 g/kg of a sucrose solution by oral administration. The blood was drawn from the rat tail vein before administration of the sucrose solution and 15, 30 and 60 min after the administration, and the plasma glucose level was measured. The plasma glucose level was measured by an enzymatic method using an L type Wako Glu2 (Wako Pure Chemical Industries, Ltd.), and the plasma insulin level was measured by radio immunoassay using Insulotech-Mochida (Mochida Pharmaceutical Co., Ltd.).
# Increase in the plasma glucose and plasma insulin areas was calculated by a trapezoid method (Odaka et al., J. Nutr. Sci. Vitaminol., vol. 38, p. 37 (1992)) using the plasma glucose and plasma insulin levels at each time point.
compound,measurement,setting,value
CC(C)[C@H]1CC[C@H](C(=O)N[C@H](Cc2ccccc2)C(=O)O)CC1 [nateglinide],Increase in plasma glucose area,[1]; nateglinide 10 mg/kg oral,65 ± 28 mg·h/dL
same,Increase in plasma glucose area,[1]; nateglinide 30 mg/kg oral,54 ± 15 mg·h/dL
CCOc1cc(CC(=O)N[C@@H](CC(C)C)c2ccccc2N2CCCCC2)ccc1C(=O)O [repaglinide],Increase in plasma glucose area,[2],6 ± 13 mg·h/dL
same,Increase in plasma insulin area,[2],432 ± 117 μU · h/ml
OCC(CO)N[C@H]1C[C@](O)(CO)[C@@H](O)[C@H](O)[C@H]1O [voglibose],Increase in plasma glucose area,[1]; voglibose 0.1 mg/kg oral,30 ± 10 mg·h/dL
